Assay results published in patent US20220088131A1, “COMPOSITIONS AND METHODS RELATING TO C5L2” (King's College London, priority 2013, published 2022).

Assays:
human CD4+ T cells [1] = assay: Rescue of CPM inhibitor-mediated increase in IFN-γ production by CD4+ T cells; format: cell-based; settings: 24 h post activation, FIG. 13
Procedure: FIG. 13. Serum-purified C5adesArg can partially rescue carboxypeptidase M inhibitor (CPM)-mediated increase in IFN-γ production by CD4+ T cells. Purified human CD4+ T cells were activated with depicted immobilized antibodies in media, or in media with the addition of a CPM inhibitor with or without either serum-purified C5a or C5adesArg. IFN-γ production by cells was assessed 24 h post activation using the CBA Cytokine Bead Array ([…]). Data (±SD) are from three experiments (n=3). *, p<0.05; (student's paired t-test).
The ability of serum-purified C5adesArg to rescue carboxypeptidase M inhibitor (CPM)-mediated increase in IFN-γ production by CD4+ T cells was determined. Purified human CD4^+ T cells were activated in media, or in media with the addition of a CPM inhibitor with or without either serum-purified C5a or C5adesArg. IFN-γ production by cells was assessed 24 h post activation using the CBA Cytokine Bead Array. […] However, the increase in IFN-γ production was markedly lower when C5adesArg was present than when C5a was present and also markedly lower than in the absence of both C5a and C5adesArg. Addition of purified C5adesArg but not C5a reduced CPM inhibitor-induced increase in IFN-γ by about 25%.

human CD4+ T cells [2] = assay: Effect of carboxypeptidase M inhibition on cytokine secretion in CD4+ T cells (CBA); format: cell-based; settings: resting and activated CD4+ T cells, 36 hours
Procedure: FIG. 12A. Effect of carboxypeptidase M (CPM) inhibition on cytokine secretion in resting and activated CD4+ T cells. CD4+ T cells (2.5×10^5) were activated as depicted for 36 hours and supernatants assayed for Th1/2/17 cytokines using CBA. Cells were treated with either C5aR/C5L2 double receptor antagonist (dRA; 7 μM), C5aR antagonist (PMX53; 10 μM), with or without a carboxypetidase M inhibitor (CPMi) or activated in media without any addition as a first control (non-treated, NT) or with a control peptide that lacks activity towards C5a and C5L2 as a second control (Control). The effect of antagonist treatment was assessed in non-activated T cells (white bars), as well as T cells activated with 0.25 μg plate-bound anti-CD3 (light grey bars), anti-CD3/28 (dark grey bars) or anti-CD3/46 (black bars). Data represent n=4 with standard error of the mean indicated. Bar graphs showing effect of CPMi on secretion of IL-17, IFN-γ, and TNFα by resting and activated CD4+ T cells. FIG. 12B. […]
CD4^+ T cells and CD14^+ monocytes were cultured in medium (RPMI-1640 medium (Sigma-Alich, Suffolk, UK), supplemented with 1% GlutaMAX, 1% penicillin/streptomycin (both Life Technologies, Paisley, UK) and 10% FBS (HyClone Laboratories, Logan, Utah). In the case of T cells media was supplemented with 25 U/ml IL-2 (Sigma-Aldrich; or with concentrations indicated in figure legends). CD4^+ T cells (2.5×10^5) were cultured alone or together with plate-bound anti-CD3 (OKT3, Biolegend, San Diego, Calif.), anti-CD3 and anti-CD28 (CD28.2, BD Pharmingen, San Jose, Calif.) or anti-CD3 and anti-CD46 (TRA-2-10, provided by John Atkinson, Washington University, St Louis, Mo.) all immobilised onto 48-well plates at concentrations of 2 μg/ml PBS overnight at 4° C. […] Cells were cultured at 37° C. and 5% CO2 and cytokine secetion assessed at 12, 24 or 36 h post activation.
The Th1/Th2/Th17 Cytometric Bead Array (BD Bioscience) was used to quantify cytokine production by CD4^+ T cells and monocytes following 12 or 36 h culture under distinct activation conditions. […]

CD14+ monocytes = assay: Pro-inflammatory cytokine release by monocytes (CBA); format: cell-based, human; settings: resting and Flagellin-stimulated monocytes; 36 hours; dRA 7 μM, PMX53 10 μM; FIG. 9
Procedure: FIG. 9. C5L2 blockade induces pro-inflammatory cytokine release by human monocytes. CD14+ monocytes (2.5×10^5) were cultured for 36 hours and supernatants assayed for cytokines using CBA. Monocytes were treated with either C5aR/C5L2 double receptor antagonist (dRA; 7 μM), C5aR antagonist (PMX53; 10 μM) or control (non-treated). The effect of antagonist treatment was assessed on non-activated monocytes (white bars) as well as monocytes activated with 1 μg/ml of either Flagellin (light grey bars) or 100 ng/ml LPS (dark grey bars). Data represent n=4 experiments with SEM indicated. Statistical testing was not conducted as insufficient experimental repeats were performed to assume normal distribution. Asterisk denotes that the median value was 10,400 pg/ml.
Human blood was obtained from healthy volunteers following ethical guidelines set by Kings College London (KCL) ethics committee (REC: 09/H0804/72). PBMCs were isolated by density centrifugation (Ficoll-Paque PLUS; GE healthcare, Uppsala, Sweden). […]
The Th1/Th2/Th17 Cytometric Bead Array (BD Bioscience) was used to quantify cytokine production by CD4^+ T cells and monocytes following 12 or 36 h culture under distinct activation conditions. […] IL-1β amounts secreted into the cell media were measured by ELISA, according to the manufacturer's protocol (R&D Systems, Abingdon, UK).

human CD4+ T cells [3] = assay: Cytokine secretion by CD4+ T cells with C5aR or C5aR/C5L2 blockade (Cytometric Bead Array); format: cell-based
From the text: Human blood was obtained from healthy volunteers following ethical guidelines set by Kings College London (KCL) ethics committee (REC: 09/H0804/72). PBMCs were isolated by density centrifugation (Ficoll-Paque PLUS; GE healthcare, Uppsala, Sweden). Cell subsets were isolated by magnetic separation following manufacturer's instructions (Miltenyi Biotec, Auburn, Calif.). Monocytes were positively selected using anti-CD14 microbeads (average purity 97%) and CD4^+ T cells were isolated from the CD14-negative fraction using anti-CD4 microbeads (average purity 98%). Alternatively, CD4^+ T cells were isolated from purified PBMCs by cell sorting after staining with antibodies to CD14 and CD4 and CD3.
CD4^+ T cells and CD14^+ monocytes were cultured in medium (RPMI-1640 medium (Sigma-Alich, Suffolk, UK), supplemented with 1% GlutaMAX, 1% penicillin/streptomycin (both Life Technologies, Paisley, UK) and 10% FBS (HyClone Laboratories, Logan, Utah). In the case of T cells media was supplemented with 25 U/ml IL-2 (Sigma-Aldrich; or with concentrations indicated in figure legends). CD4^+ T cells (2.5×10^5) were cultured alone or together with plate-bound anti-CD3 (OKT3, Biolegend, San Diego, Calif.), anti-CD3 and anti-CD28 (CD28.2, BD Pharmingen, San Jose, Calif.) or anti-CD3 and anti-CD46 (TRA-2-10, provided by John Atkinson, Washington University, St Louis, Mo.) all immobilised onto 48-well plates at concentrations of 2 μg/ml PBS overnight at 4° C. Monocytes (2.5×10^5) were cultured either alone or in the presence of LPS or Flagellin (1 μg/ml). […] Cells were cultured at 37° C. and 5% CO2 and cytokine secetion assessed at 12, 24 or 36 h post activation.
The Th1/Th2/Th17 Cytometric Bead Array (BD Bioscience) was used to quantify cytokine production by CD4^+ T cells and monocytes following 12 or 36 h culture under distinct activation conditions. Samples were processed following manufacturer's instructions and acquired using BD FACScan. IL-1β amounts secreted into the cell media were measured by ELISA, according to the manufacturer's protocol (R&D Systems, Abingdon, UK).

[4] = activated CD4+ T cells, dRA 7 μM, PMX53 10 μM, FIG. 6

CPMi: carboxypetidase (CP) A and B inhibitor, which also effectively inhibits CPM (Sigma CO279; 25 nM) (QQHADPICNKPCKTHDDCSGAWFCQACWNSARTCGPYVG)
IFN-γ production (human CD4+ T cells [1]; all activation conditions): increased IFN-γ production
effect on IFN-γ secretion (human CD4+ T cells [2]; FIG. 12A): may also be present
secretion of IL-17 (human CD4+ T cells [2]; control cells, untreated cells and with C5aR antagonist, FIG. 12A): increased secretion
secretion of IL-6 (human CD4+ T cells [2]; control cells, untreated cells and with C5aR antagonist, FIG. 12B): increased secretion

PMX53 [reference compound]
secretion of IL-6 (CD14+ monocytes): no effect
secretion of IFN-γ (human CD4+ T cells [3]; [4]): no effect
secretion of IL-17 (human CD4+ T cells [3]; [4]): no effect
secretion of IL-6 (human CD4+ T cells [3]; resting and activated CD4+ T cells, FIG. 7A): no effect

B1: C5adesArg: serum-purified C5a lacking the C-terminal Arg; naturally occurring agonist of C5L2 (protein)
chain: TLQKKIEEIAAKYKHSVVKKCCYDGACVNNDETCEQRAARISLGPRCIKAFTECCVVASQLRANISHKDMQLG
reduction of CPM inhibitor-induced increase in IFN-γ (human CD4+ T cells [1]; serum-purified protein added with CPM inhibitor): about 25%
